Measurements as given in US20240335462A1, “SULFUR/PHOSPHORUS-CONTAINING ARYL COMPOUND AND APPLICATION THEREOF” (MEDSHINE DISCOVERY INC., priority 2021, published 2024).

Legend:
[1] = system: IL-12/IL-18-induced IFN-γ secretion by mouse immune cells; test: IL-12/IL-18-induced IFN-γ secretion in mice (serum ELISA); type: in vivo, C57BL/6J mice
Method: The purpose of this experiment was to evaluate the inhibitory effect of the compound on IL-12/IL-18-induced IFN-γ secretion by immune cells in mice. The IFN-γ protein level in serum samples of mice treated with the compound was detected using the enzyme-linked immunosorbent assay (ELISA) method.
This experiment was conducted twice.
The compounds were all prepared into a clear solution with 10% DMSO+10% solutol+80% (10% HP-β-CD) as a solvent for PO (oral gavage) administration. The frequency of administration was once daily (QD).
• a) According to the grouping, the mice were administered by gavage (P0) with either the compound formulation or solvent control. • b) One hour later, each mouse received an intraperitoneal injection of IL-12 (0.01 μg per mouse) or PBS buffer. • c) One hour after IL-12 administration, each mouse received an intraperitoneal injection of IL-18 (1 μg per mouse) or PBS buffer. • d) Blood was collected three hours after IL-18 administration, and serum was separated.
• a) Prior to use, all reagents were mixed thoroughly to avoid foaming. • b) The number of strips required was determined based on the number of experimental wells (blanks and standards). Duplicate tests were performed for samples (including standards) and blanks. • c) Sample addition: 100 μL/well of the diluted Cytokine standard was added to the standard wells, 100 μL/well of the sample was added to the sample wells, and 100 μL/well of Dilution buffer R (1×) was added to the blank control wells. • d) Detection antibody addition: 50 μL/well of Biotinylated antibody working solution was added. After mixing, the plate was covered with a sealing film and incubated at 37° C. for 90 minutes. • e) Plate washing: The liquid was discarded from the wells, then 300 μL/well of 1× Washing buffer working solution was added, and allowed to stand for 1 minute before the liquid was discarded from the wells. […]
The plate was covered with a sealing film and incubated at 37° C. for 30 minutes. • g) Plate washing: Step 5 was repeated. • h) Color development: 100 μL/well of TMB was added, then the plate was incubated at 37° C. in the dark for 5 to 30 minutes, and the reaction was terminated depending on the intensity of the color (dark blue) in the well. […] Dual wavelengths were recommended for reading the plate, specifically measuring at a measurement wavelength of 450 nm and a reference wavelength of 610 to 630 nm simultaneously.
The expression level of each sample was calculated based on the standard curve, and statistical analysis of the results for each group was performed, including mean and standard error of the mean (SEM). […] All data were analyzed using GraphPad Prism 6.02.

[2] = system: acute colitis induced by CD40 antibody; test: Mouse model of acute colitis induced by CD40 antibody; type: in vivo, CB-17 SCID mice; set-up: DAI score: scale not given here; details: mean
Method: The purpose of this experiment was to evaluate the alleviating effect of the compound on colitis in a mouse model induced by CD40 antibody.
CB-17 SCID mice were randomly divided into groups. Each group consisted of 6 mice, which received an intraperitoneal injection (IP) of CD40 antibody (80 μg per mouse) on Day 0. The positive control drug IL-12 P40 antibody and the test compound were administered from Day-1 to Day 4, with Day 5 being the endpoint of the experiment. The positive control drug IL-12 P40 antibody was administered via intraperitoneal injection (IP) once every three days; the test compound was administered by gavage (PO) twice a day (BID).
The compounds were all prepared into a clear solution with 10% DMSO+10% solutol+80% (10% HP-3-CD) as a solvent for PO (oral gavage) administration. Administration volume parameters: 10 mL/kg based on the body weight of the mice.
IL-12 P40 antibody and the test compound were administered from Day-1 to Day 4. On Day 0, 30 minutes after administration, 200 μL of CD40 antibody (4 mg/kg) was intraperitoneally injected, while mice in the blank control group were intraperitoneally injected with 200 μL of DPBS. Body weight was recorded and feces were scored during the experiment.
Fecal scoring involved placing each mouse individually in a specially designed cage for about 10 minutes for scoring. The fecal scoring criteria were as per Table 27.
If blood is observed in the feces or around the anus, occult blood testing is not conducted. For the remaining mice without visible bloody stools, feces are collected for occult blood testing. Occult blood scoring is based on the assumption that the daily test results for the mice in the Normal group are 0. Each day, the fecal samples of four mice from the blank control group are observed for the time taken to develop color on the occult blood test strips. The shortest time required for color development in the feces of these four mice is set as the daily threshold. If the feces develop color before this time point and the color intensifies within 1 to 2 minutes, a score of 2 is assigned.
The body weight and Disease Activity Index (DAI) scores of the animals were recorded daily to assess the disease progression in each group and the effect of the test compound on the disease. The daily Disease Activity Index (DAI) score consists of three parts, with specific criteria referenced in Table 27.

[3] = single PO administration 3 mg/kg
[4] = single PO administration 10 mg/kg

CNC(=O)c1nnc(NC(=O)C2CC2)cc1Nc1cccc(-c2ncc(S(=N)(=O)C(C)C)cn2)c1OC (single isomer, unassigned) [WX-011A]
Serum IFN-γ inhibition rate (%) [1, 3]: 64% | Serum IFN-γ inhibition rate (%) [1, 4]: 96%

CNC(=O)c1cnc(NC(=O)C2CC2)cc1Nc1cccc(-c2ccc(S(=O)(=O)C(C)C)cn2)c1OC [WX-020]
Serum IFN-γ inhibition rate (%) [1, 3]: 40% | Serum IFN-γ inhibition rate (%) [1, 4]: 86%

CNC(=O)c1cnc(NC(=O)C2CC2)cc1Nc1cccc(-c2ccc(S(=O)(=O)C(C)C)cn2)c1OC.O=S(=O)(O)O [Sulfate of WX-020]
DAI score ([2]; 50 mg/kg PO BID, Day 0): 0.33 | Weight change rate (%) ([2]; 50 mg/kg PO BID, Day 0): 100.48% | DAI score ([2]; 50 mg/kg PO BID, Day 1): 1.17 | Weight change rate (%) ([2]; 50 mg/kg PO BID, Day 1): 98.37% | DAI score ([2]; 50 mg/kg PO BID, Day 2): 2.67 | Weight change rate (%) ([2]; 50 mg/kg PO BID, Day 2): 95.22% | DAI score ([2]; 50 mg/kg PO BID, Day 3): 0.83 | Weight change rate (%) ([2]; 50 mg/kg PO BID, Day 3): 100.73% | DAI score ([2]; 50 mg/kg PO BID, Day 4): 0.33 | Weight change rate (%) ([2]; 50 mg/kg PO BID, Day 4): 100.81% | DAI score ([2]; 50 mg/kg PO BID, Day 5): 0.50 | Weight change rate (%) ([2]; 50 mg/kg PO BID, Day 5): 100.44% | DAI score ([2]; 50 mg/kg PO BID, Day -1): 0.00 | Weight change rate (%) ([2]; 50 mg/kg PO BID, Day -1): 100.00% | DAI score ([2]; 100 mg/kg PO BID, Day 0): 0.33 | Weight change rate (%) ([2]; 100 mg/kg PO BID, Day 0): 100.78% | DAI score ([2]; 100 mg/kg PO BID, Day 1): 1.33 | Weight change rate (%) ([2]; 100 mg/kg PO BID, Day 1): 99.88% | DAI score ([2]; 100 mg/kg PO BID, Day 2): 1.67 | Weight change rate (%) ([2]; 100 mg/kg PO BID, Day 2): 97.14% | DAI score ([2]; 100 mg/kg PO BID, Day 3): 0.50 | Weight change rate (%) ([2]; 100 mg/kg PO BID, Day 3): 99.65% | DAI score ([2]; 100 mg/kg PO BID, Day 4): 0.33 | Weight change rate (%) ([2]; 100 mg/kg PO BID, Day 4): 101.16% | DAI score ([2]; 100 mg/kg PO BID, Day 5): 0.33 | Weight change rate (%) ([2]; 100 mg/kg PO BID, Day 5): 100.90% | DAI score ([2]; 100 mg/kg PO BID, Day -1): 0.00 | Weight change rate (%) ([2]; 100 mg/kg PO BID, Day -1): 100.00%

CNC(=O)c1nnc(NC(=O)C2CC2)cc1Nc1cccc(-c2ncc(S(=N)(=O)C(C)C)cn2)c1OC.Cl (single isomer, unassigned) [Hydrochloride of WX-011A]
DAI score ([2]; 30 mg/kg PO BID, Day 0): 0.17 | Weight change rate (%) ([2]; 30 mg/kg PO BID, Day 0): 100.60% | DAI score ([2]; 30 mg/kg PO BID, Day 1): 1.00 | Weight change rate (%) ([2]; 30 mg/kg PO BID, Day 1): 100.01% | DAI score ([2]; 30 mg/kg PO BID, Day 2): 2.17 | Weight change rate (%) ([2]; 30 mg/kg PO BID, Day 2): 95.93% | DAI score ([2]; 30 mg/kg PO BID, Day 3): 0.83 | Weight change rate (%) ([2]; 30 mg/kg PO BID, Day 3): 98.85% | DAI score ([2]; 30 mg/kg PO BID, Day 4): 0.50 | Weight change rate (%) ([2]; 30 mg/kg PO BID, Day 4): 99.69% | DAI score ([2]; 30 mg/kg PO BID, Day 5): 1.00 | Weight change rate (%) ([2]; 30 mg/kg PO BID, Day 5): 97.07% | DAI score ([2]; 30 mg/kg PO BID, Day -1): 0.00 | Weight change rate (%) ([2]; 30 mg/kg PO BID, Day -1): 100.00% | DAI score ([2]; 50 mg/kg PO BID, Day 0): 0.33 | Weight change rate (%) ([2]; 50 mg/kg PO BID, Day 0): 100.63% | DAI score ([2]; 50 mg/kg PO BID, Day 1): 1.00 | Weight change rate (%) ([2]; 50 mg/kg PO BID, Day 1): 99.54% | DAI score ([2]; 50 mg/kg PO BID, Day 2): 1.83 | Weight change rate (%) ([2]; 50 mg/kg PO BID, Day 2): 97.69% | DAI score ([2]; 50 mg/kg PO BID, Day 3): 0.67 | Weight change rate (%) ([2]; 50 mg/kg PO BID, Day 3): 100.43% | DAI score ([2]; 50 mg/kg PO BID, Day 4): 0.50 | Weight change rate (%) ([2]; 50 mg/kg PO BID, Day 4): 100.96% | DAI score ([2]; 50 mg/kg PO BID, Day 5): 1.17 | Weight change rate (%) ([2]; 50 mg/kg PO BID, Day 5): 99.34% | DAI score ([2]; 50 mg/kg PO BID, Day -1): 0.00 | Weight change rate (%) ([2]; 50 mg/kg PO BID, Day -1): 100.00%
